# Values joined by “and” are separate entries in the source; they are usually repeats but may differ in a detail not shown here. Identical values can stand only once. “Also recorded” adds a separate entry of the source.
# Tests used:
# [1] = test system: NCC pThr46/50/55/60; test: Pharmacodynamic study, NCC phosphorylation in kidney of naive mice; assay type: in vivo, mouse; conditions: Fig S8b (kidney)
# Procedure: (§1) To define ZT-1a efficacy in naive mice in vivo, we examined phosphorylation of SPAK, NKCC1, and NCC in kidney, and phosphorylation of SPAK, NKCC1, and KCC3 in brain, after intraperitoneal (i.p.) administration of either ZT-1a (10, 30, 50, and 100 mg/kg) or Closantel (50 mg/kg as a reference). […]
# (§2) 5. Pharmacodynamic (PD) study
# (§3) Male C57BL/6j wild-type mice (6 weeks old, Charles River Laboratories Edinburgh UK) were treated with ZT-1a (in DMSO, Sigma) by subcutaneous injection at doses of 0, 3, 10, 30, 50 and 100 mg/kg. 50 mg/kg Closantel was administered as a comparative control. Vehicle control mice were treated with an equal volume of DMSO solution. One hour after administration, mice were sacrificed by cervical dislocation, and kidney and brain tissues were rapidly dissected and snap-frozen in liquid nitrogen. Age- […]
# (§4) free conditions at the University of Dundee (UK) as described in our recent study1. Animal experiments and breeding were approved by the University of Dundee ethical committee and performed under a […]
# (§5) Policy on the Care, Welfare and Treatment of Animals, and regulations set by the University of Dundee and the U.K. Home Office. […]
# (§6) Brain and kidney tissues were collected at 60 min post injection, and proteins subjected to immunoblot were probed with antibodies specific for phosphorylated forms of SPAK,
# [2] = test system: NKCC1 pThr203/207/212; test: Pharmacodynamic study, NKCC1 phosphorylation in brain of naive mice; assay type: in vivo, mouse; conditions: for pTh203.207.212 / NKCC1: Fig S8a (brain)
# Procedure: as §1, §2, §3, §4, §5, §6
# [3] = test system: NKCC1 pThr203/207/212; test: Pharmacodynamic study, NKCC1 phosphorylation in kidney of naive mice; assay type: in vivo, mouse; conditions: Fig S8b (kidney)
# Procedure: as §1, §2, §3, §4, §5, §6
# [4] = test system: KCC3 pThr1048; test: Pharmacodynamic study, KCC3 phosphorylation in brain of naive mice; assay type: in vivo, mouse; conditions: for pTh1048 / KCC3: Fig S8a (brain)
# Procedure: as §1, §2, §3, §4, §5, §6
# [5] = test system: regional cerebral blood flow; test: Regional cerebral blood flow by laser speckle contrast imaging after tMCAO; assay type: in vivo, mouse; conditions: for % CBF: single mice
# Procedure: Regional cerebral blood flow was measured using a two-dimensional laser speckle contrast analysis system (PeriCam PSI High Resolution with PIMSoft, Perimed)[65]. Isoflurane-anesthetized mice were head-fixed using stereotaxic equipment during imaging. The skin was retracted to expose the intact skull. Images were taken at 19 frames/second with averaging. Average signal intensity was taken from fixed-size (0.5-mm^2) regions of interest drawn over the parietal bone plate on the ipsi (IL)- and contralateral (CL) sides. Percent perfusion values were taken in comparison with the mean values of the pre-ischemic ipsilateral side. Five consecutive images at each time period per animal were averaged for analysis. […]
# cerebral blood flow (rCBF) in ischemic mice. a and d Representative two-dimensional laser speckle contrast images of rCBF. Vehicle (DMSO), ZT-1a (A, 2.5 mg/kg), or Closantel (D, 1.25 mg/kg, i.p.) was administered i.p. at 3 hr and again at 8 hr post-reperfusion after MCAO. Pseudocolor scale bar indicates relative signal intensity. b and e No changes of rCBF were detected in the non-ischemic […]
# contralateral (CL) hemispheres of vehicle-control or ZT-1a-treated (b) or Closantel-treated mice (e).
# Data are mean ± SD, n = 3. c and f Similar reductions and recoveries of rCBF in the ischemic ipsilateral hemispheres (IL) were detected in the ZT-1a-treated (c) or Closantel-treated ischemic mice (f), and neither differed from vehicle-injected mice. Data are mean ± SEM, n = 3.
# [6] = test system: KCC3 pThr1048; test: Immunoblot of KCC site 2 phosphorylation (KCC3 Thr1048) in HEK-293 cells transfected with FLAG-KCC3; assay type: cell-based, human; conditions: for T1007/KCC2 band intensity ratio: single replicates
# [7] = target: human SPAK 452-547(C-term) with WNK peptide (RFQV) (Homo sapiens, UniProt Q9UEW8); test: Fluorescence polarization of SPAK–WNK peptide interaction; assay type: binding; conditions: for Inhibitor vs SPAK FL (fluorescence polarization signal): Fig S5b
# [8] = test system: mouse model of ischemic stroke (tMCAO); test: Infarct volume and hemispheric swelling (TTC) 24 h after tMCAO; assay type: in vivo
# [9] = test system: SPAK phosphorylation; test: Pharmacodynamic study, SPAK phosphorylation in kidney of naive mice; assay type: in vivo, mouse; conditions: Fig S8b (kidney)
# Procedure: as §1, §2, §3, §4, §5, §6
# [10] = test system: NKCC1 pThr203/207/212; test: Immunoblot of NKCC1 p-Thr203/Thr207/Thr212 in HEK-293 cells; assay type: cell-based, human; conditions: for pNKCC1/NKCC1 band intensity ratio: single replicates
smiles,measurement,setting,value
"Cc1cc(C(C#N)c2ccc(Cl)cc2)c(Cl)cc1NC(=O)c1cc(Cl)ccc1O (stereo not drawn) [ZT-1a, 5-chloro-N-(5-chloro-4-((4-chlorophenyl)(cyano)methyl)-2-methylphenyl)-2-hydroxybenzamide]",pTh46.50.55 / NCC,[1]; 10 mg/kg,1.78 and 1.82 and 2.81 and 2.21
same,pTh60 / NCC,[1]; 10 mg/kg,1.01 and 0.99 and 1 and 0.94
same,pTh46.50.55 / NCC,[1]; 30 mg/kg,2.61 and 1.78 and 2.06 and 1.98
same,pTh60 / NCC,[1]; 30 mg/kg,1.05 and 0.97 and 0.9 and 1.01
same,pTh46.50.55 / NCC,[1]; 50 mg/kg,0.4 and 0.7 and 0.69 and 0.55
same,pTh46.50.55 / NCC,[1]; 100 mg/kg,0.68 and 0.46 and 0.41
same,NKCC1 phosphorylation (pThr203/207/212) in naive brains,[2]; 60 min after administration,neither drug had reduced
same,pTh203.207.212 / NKCC1,[2]; 10 mg/kg,0.75 and 0.66 and 0.74 and 0.69
same,pTh203.207.212 / NKCC1,[2]; 30 mg/kg,0.62 and 0.59 and 0.64 and 0.61
same,pTh203.207.212 / NKCC1,[2]; 50 mg/kg,0.66 and 0.75 and 0.63 and 0.69
same,pTh203.207.212 / NKCC1,[2]; 100 mg/kg,0.61 and 0.67 and 0.74 and 0.58
same,pTh203.207.212 / NKCC1,[3]; 10 mg/kg,1.13 and 1.26 and 1.54 and 1.32
same,pTh203.207.212 / NKCC1,[3]; 30 mg/kg,1.14 and 0.89 and 0.64 and 0.77
same,pTh203.207.212 / NKCC1,[3]; 100 mg/kg,0.41 and 0.27 and 0.44 and 0.32
same,KCC3 phosphorylation (pThr1048) in naive brains,[4]; 60 min after administration,neither drug had reduced
same,pTh1048 / KCC3,[4]; 10 mg/kg,1.01 and 0.99 and 1 and 0.95
same,pTh1048 / KCC3,[4]; 30 mg/kg,1.05 and 0.97 and 0.9 and 0.96
same,pTh1048 / KCC3,[4]; 50 mg/kg,0.87 and 0.92 and 1.06 and 0.97
same,pTh1048 / KCC3,[4]; 100 mg/kg,0.94 and 0.87 and 0.99 and 0.9
same,% CBF,"[5]; Fig S10b/S10e, Pre",100%
same,% CBF,"[5]; Fig S10b/S10e, Reperfusion 10 min",99% and 109% and 96%
same,% CBF,"[5]; Fig S10b/S10e, Reperfusion 20 min",87% and 110% and 86%
same,% CBF,"[5]; Fig S10b/S10e, Reperfusion 3 h",120% and 108% and 100%
same,% CBF,"[5]; Fig S10b/S10e, Reperfusion 4 h",119% and 117% and 112%
same,% CBF,"[5]; Fig S10b/S10e, Reperfusion 24 h",106% and 104% and 114%
same,% CBF,"[5]; Fig S10b/S10e, mcao 10 min",78% and 99% and 105%
same,% CBF,"[5]; Fig S10b/S10e, mcao 20min",76% and 107% and 98%
same,% CBF,"[5]; Fig S10b/S10e, mcao 50 min",104% and 96%
same,% CBF,"[5]; Fig S10c/S10f, Pre",100%
same,% CBF,"[5]; Fig S10c/S10f, Reperfusion 10 min",70% and 72% and 78%
same,% CBF,"[5]; Fig S10c/S10f, Reperfusion 20 min",75% and 66% and 82%
same,% CBF,"[5]; Fig S10c/S10f, Reperfusion 3 h",84% and 102% and 81%
same,% CBF,"[5]; Fig S10c/S10f, Reperfusion 4 h",75% and 87% and 86%
same,% CBF,"[5]; Fig S10c/S10f, Reperfusion 24 h",83% and 101% and 109%
same,% CBF,"[5]; Fig S10c/S10f, mcao 10 min",35% and 30% and 25%
same,% CBF,"[5]; Fig S10c/S10f, mcao 20min",32% and 31% and 24%
same,% CBF,"[5]; Fig S10c/S10f, mcao 50 min",30% and 27% and 22%
same,regional cerebral blood flow (rCBF),"[5]; within the 24-h post-stroke period, ischemic mice",does not affect regional cerebral blood flow; also recorded: unaffected
same,T1007/KCC2 band intensity ratio,"[6]; Hypotonic low Cl, 1 uM",0.223 and 0.282 and 0.213 and 0.243
same,T1007/KCC2 band intensity ratio,"[6]; Hypotonic low Cl, 3 uM",0.041 and 0.093 and 0.036 and 0.063
same,T1007/KCC2 band intensity ratio,"[6]; Hypotonic low Cl, 10 uM",0.027 and 0.033 and 0.023 and 0.03
same,T1007/KCC2 band intensity ratio,"[6]; Isotonic control, 1 uM",0.174 and 0.099 and 0.126 and 0.132
same,T1007/KCC2 band intensity ratio,"[6]; Isotonic control, 3 uM",0.134 and 0.118 and 0.103 and 0.121
same,T1007/KCC2 band intensity ratio,"[6]; Isotonic control, 10 uM",0.09 and 0.069 and 0.044 and 0.053
same,KCC3 pThr1048 / KCC3,"[6]; ZT-1a 1 uM, Fig S4b",0.35 and 0.401 and 0.302 and 0.261
same,IC50,"[7]; 10 nM Lumino-Green WNK peptide, read-out: IC50, decrease in fluorescence polarization (SPAK–WNK peptide)",325 µM
same,Inhibitor vs SPAK FL (fluorescence polarization signal),[7]; Inhibitor 1e-5 μM,140.3 and 136 and 147.2
same,Inhibitor vs SPAK FL (fluorescence polarization signal),[7]; Inhibitor 0.0001 μM,142.6 and 130.1 and 143.7
same,Inhibitor vs SPAK FL (fluorescence polarization signal),[7]; Inhibitor 0.001 μM,141.9 and 135.2 and 145.3
same,Inhibitor vs SPAK FL (fluorescence polarization signal),[7]; Inhibitor 0.003 μM,148.6 and 138.3 and 144.2
same,Inhibitor vs SPAK FL (fluorescence polarization signal),[7]; Inhibitor 0.01 μM,150.4 and 140.8 and 146.2
same,Inhibitor vs SPAK FL (fluorescence polarization signal),[7]; Inhibitor 0.03 μM,151.3 and 139.2 and 146.8
same,Inhibitor vs SPAK FL (fluorescence polarization signal),[7]; Inhibitor 0.1 μM,152.2 and 141.6 and 147.3
same,Inhibitor vs SPAK FL (fluorescence polarization signal),[7]; Inhibitor 0.3 μM,151.7 and 143.1 and 150.3
same,Inhibitor vs SPAK FL (fluorescence polarization signal),[7]; Inhibitor 1 μM,154.3 and 140.8 and 151.4
same,Inhibitor vs SPAK FL (fluorescence polarization signal),[7]; Inhibitor 3 μM,149 and 139.7 and 147.8
same,Inhibitor vs SPAK FL (fluorescence polarization signal),[7]; Inhibitor 10 μM,149.9 and 139.1 and 147.3
same,Inhibitor vs SPAK FL (fluorescence polarization signal),[7]; Inhibitor 100 μM,127.1 and 121.5 and 130.6
same,reduction of cerebral hemispheric swelling,"[8]; ZT-1a 2.5 or 5 mg/kg, vs vehicle control",36–54%
same,infarct volume,"[8]; ZT-1a from 3 h post reperfusion, 24 h post tMCAO, n = 12",43.6 ± 6.5 mm^3
same,decrease of infarct volume,"[8]; ZT-1a from 3 h post reperfusion, 24 h post tMCAO, vs vehicle, n = 12",~ 44%
same,pSer373 / SPAK,[9]; 10 mg/kg,0.9 and 1.08 and 0.92 and 0.99
same,pSer373 / SPAK,[9]; 30 mg/kg,0.85 and 0.8 and 0.86 and 0.76
same,pSer373 / SPAK,[9]; 50 mg/kg,0.56 and 0.45 and 0.51 and 0.41
same,pSer373 / SPAK,[9]; 100 mg/kg,0.37 and 0.44 and 0.38 and 0.4
same,inhibition at 1 µM,"[10]; Homo sapiens, HEK293, read-out: inhibition of phosphorylation of NKCC1 p-Thr203/207/212, 1 µM ZT-1a, HEK-293 cells, n = 4",72 ± 5.2%
same,pNKCC1/NKCC1 band intensity ratio,"[10]; Hypotonic low Cl, 1 uM",0.292 and 0.311 and 0.247 and 0.273
same,pNKCC1/NKCC1 band intensity ratio,"[10]; Hypotonic low Cl, 3 uM",0.113 and 0.104 and 0.103 and 0.1063
same,pNKCC1/NKCC1 band intensity ratio,"[10]; Hypotonic low Cl, 10 uM",0.004 and 0.007 and 0.005 and 0.003
same,pNKCC1/NKCC1 band intensity ratio,"[10]; Isotonic control, 1 uM",0.133 and 0.075 and 0.106 and 0.093
same,pNKCC1/NKCC1 band intensity ratio,"[10]; Isotonic control, 3 uM",0.048 and 0.046 and 0.043 and 0.041
same,pNKCC1/NKCC1 band intensity ratio,"[10]; Isotonic control, 10 uM",0.006 (2×) and 0.004 and 0.005

# — PMC6946680, “Modulation of brain cation-Cl^− cotransport via the SPAK kinase inhibitor ZT-1a” (Nature Communications, 2020)
